From patent publication US10501454B2, “Monocyclic β-lactam-siderophore conjugate, and preparation method and use thereof” (Shanghai Institute of Materia Medica, Chinese Academy of …, priority 2016, dated 2019)

Key:
[1] = test system: Escherichia coli ATCC 35218; experiment: MIC, broth microdilution, iron-deficient MH medium; format: cell-based; settings: iron-deficient MH medium (16 mg/L 2,2'-bipyridine); quality control strain
Procedure: (§1) Strain for quality control: Escherichia coli ATCC35218, purchased from National Center of Clinical Laboratory.
(§2) Medium: MH liquid medium (OXOID).
(§3) Culture condition: cells were incubated at 35-37° C. for 16-18 h.
(§4) The broth microdilution method recommended by Clinical and Laboratory Standards Institute (CLSI), Performance Standards for Antimicrobial Susceptibility Testing; Twenty-Third Informational Supplement, M02-All, M07-A9 and M11-A8, 2013 was used to determine the MIC value of each test sample against each test strain in the normal MH medium and iron-deficient MH medium.
(§5) BPL was added to the normal MH medium to obtain a final concentration of 16 mg/L; According to the method in Section 1.2.1, 100 μl of each test sample solution at different concentrations was aspirated to the 1st to 10th well in a 96-well sterile polystyrene plate to obtain the final drug concentrations of 16, 8, 4, 2, 1, 0.5, 0.25, 0.125, 0.06, and 0.03 mg/L, respectively. Then, 100 μl of the test bacterial liquid was added to each well (200 μl per well), and the final concentration of the bacterial liquid was approximately 10^4 CFU/ml. After sealing, it was placed in a 35-37° C. incubator for 18-20 hours for testing the result. The OD600 value was measured by a microplate reader, Minimal Inhibitory Concentration (MIC) of a drug is the lowest concentration of the drug which prevents growth of bacteria in the wells.

[2] = test system: Klebsiella pneumoniae (4 strains); experiment: MIC, broth microdilution, normal MH medium; format: cell-based; settings: multi-drug resistant clinical isolates (KPC2)
Procedure: (§6) Supplier of the strains: all of the above strains were provided by Sichuan Primed Shines Bio-tech Co., Ltd. A single colony was isolated by streaking on agar plates for each strain prior to the experiment, and the cells freshly cultured at 37° C. overnight were appropriately diluted for the experiment.
as §2, §3, §4
(§7) After diluting each sample to different concentrations with normal MH medium, 100 μl of each test sample solution at different concentrations was separately aspirated onto a 96-well sterile polystyrene plate. Drug solutions were added to the 1st to 10th well with the final concentrations of 16, 8, 4, 2, 1, 0.5, 0.25, 0.125, 0.06, and 0.03 mg/L in each well, respectively. The 11th well, as a blank control, was not added with drugs and bacteria. The 12th well, as a bacterial growth control, was added with bacteria but no drug.
The OD600 value was measured by a microplate reader, Minimal Inhibitory Concentration (MIC) of a drug is the lowest concentration of the drug which prevents growth of bacteria in the wells. 1.2.2 MIC in iron-deficient MH medium

[3] = test system: Escherichia coli (4 strains); experiment: MIC, broth microdilution, iron-deficient MH medium; format: cell-based; settings: iron-deficient MH medium (16 mg/L 2,2'-bipyridine); clinical isolates (ESBLs)
Procedure: as §6, §2, §3, §4, §5

[4] = test system: Klebsiella pneumoniae (4 strains); experiment: MIC, broth microdilution, iron-deficient MH medium; format: cell-based; settings: iron-deficient MH medium (16 mg/L 2,2'-bipyridine); multi-drug resistant clinical isolates (KPC2)
Procedure: as §6, §2, §3, §4, §5

[5] = test system: Pseudomonas aeruginosa (4 strains); experiment: MIC, broth microdilution, iron-deficient MH medium; format: cell-based; settings: iron-deficient MH medium (16 mg/L 2,2'-bipyridine); multidrug-resistant clinical isolates (integrator I, IMP4)
Procedure: as §6, §2, §3, §4, §5

[6] = test system: Acinetobacter baumannii (4 strains); experiment: MIC, broth microdilution, iron-deficient MH medium; format: cell-based; settings: iron-deficient MH medium (16 mg/L 2,2'-bipyridine); multidrug-resistant clinical isolates (integron I, OXA23)
Procedure: as §6, §2, §3, §4, §5

[7] = test system: Escherichia coli (4 strains); experiment: MIC, broth microdilution, normal MH medium; format: cell-based; settings: clinical isolates (ESBLs)
Procedure: as §6, §2, §3, §4, §7
(§8) The test bacterial liquid was adjusted to a bacterial suspension of 0.5 Mcfarland standard with physiological saline, and diluted with MH broth at 1:100, and then added to the drug solution so that a final concentration of the bacterial liquid was approximately 10^4 CFU/ml; 100 μl of the bacterial liquid was further added to each of the above wells (the total volume in each well is 200 μl), which was sealed and placed in a 35-37° C. incubator for 18-20 h for testing the result. The OD600 value was measured by a microplate reader, Minimal Inhibitory Concentration (MIC) of a drug is the lowest concentration of the drug which prevents growth of bacteria in the wells. 1.2.2 MIC in iron-deficient MH medium

[8] = test system: Pseudomonas aeruginosa (4 strains); experiment: MIC, broth microdilution, normal MH medium; format: cell-based; settings: multidrug-resistant clinical isolates (integrator I, IMP4)
Procedure: as §6, §2, §3, §4, §7, §8

[9] = test system: Acinetobacter baumannii (4 strains); experiment: MIC, broth microdilution, normal MH medium; format: cell-based; settings: normal MH medium; multidrug-resistant clinical isolates (integron I, OXA23)
Procedure: as §6, §2, §3, §4, §7, §8

[10] = test system: Escherichia coli ECO-14-4 (ESBLs); experiment: In vivo efficacy in mice systemically infected with Escherichia coli ECO-14-4 (ESBLs); settings: Kunming mice, intraperitoneal infection, drug s.c. 0.5 h and 4 h after infection, deaths over 7 days, Bliss method
Procedure: 3.1 Test strains: Clinically isolated pathogenic Escherichia coli ECO-14-4 (ESBLs), supplied by Sichuan Primed Shines Bio-tech Co., Ltd.
3.2 Test animals: Kunming mice, age: 4 to 5 weeks, weight: 18 to 22 g, half male, half female, SPF grade.
3.3 Test methods: Mice were randomly divided into several groups, 5 mice for each group, half male and half female, and 5 doses for each test drug: 1.25, 2.5, 5, 10 and 20 mg/kg. The mice were intraperitoneally injected with 0.5 mL of […] CFU/mL bacterial suspension for each mouse, and subcutaneously injected with the drug at the designed dose 0.5 h and 4 h after infection. The subcutaneous injection volume was 0.2 ml/20 g mouse weight; the number of deaths in mice was observed and recorded for 7 consecutive days. According to the number of deaths in mice, the half effective dose ED50 was calculated according to the Bliss method using the DAS 1.0 software, edited by Sun Ruiyuan et al.

[11] = test system: Escherichia coli ATCC 35218; experiment: MIC, broth microdilution, normal MH medium; format: cell-based; settings: quality control strain
Procedure: as §1, §2, §3, §4, §7, §8

CC1(C)[C@H](NC(=O)/C(=N\OCc2cc(=O)c(O)cn2O)c2csc(N)n2)C(=O)N1OS(=O)(=O)O [BAL30072, reference compound]
Antibacterial activity MIC, Escherichia coli ATCC 35218 [1]: 0.06 µg/mL
Antibacterial activity MIC, Klebsiella pneumoniae (4 strains) [2]: ≥64 µg/mL
Antibacterial activity MIC, Escherichia coli (4 strains) [3]: 0.25 to 1 µg/mL
Antibacterial activity MIC, Klebsiella pneumoniae (4 strains) [4]: ≥64 µg/mL
Antibacterial activity MIC, Pseudomonas aeruginosa (4 strains) [5]: 1 to 2 µg/mL
Antibacterial activity MIC, Acinetobacter baumannii (4 strains) [6]: 1 to 2 µg/mL
Antibacterial activity MIC, Escherichia coli (4 strains) [7]: 1 µg/mL
Antibacterial activity MIC, Pseudomonas aeruginosa (4 strains) [8]: 2 µg/mL
Antibacterial activity MIC, Acinetobacter baumarmii (4 strains) [9]: 2 to 4 µg/mL
ED50 Subcutaneous injection [10]: 4.19 mg/kg
Antibacterial activity MIC, Escherichia coli ATCC 35218 [11]: 0.125 µg/mL
